≈ marks a conversion by molar mass, not a printed value. Entries after “also recorded” stand apart in the source; their conditions may differ.
Tests used:
[1] = target: T1, mammalian tubulin (Sus scrofa, UniProt P02550+P02554); test: Mammalian tubulin polymerization assay kit; assay type: biochemical, porcine; settings: compounds at 1 × MIC, 1 mM GTP, 37°C
T1 construct: purchased Cytoskeleton Inc. BK011P
Protocol: The effects of the cinnamaldehyde analogs were analyzed for off-target effects on mammalian tubulin using the protocol as previously described ([Chai et al., 2020]), using a Tubulin Polymerization Assay Kit (Cytoskeleton Inc., BK011P, Denver, CO, United States), following the protocol described by the manufacturer.
Controls included 20 μM paclitaxel (promoter of polymerization), 20 μM vinblastine (inhibitor of polymerization) and 2.5% (v/v) DMSO (solvent control). The reaction was initiated by the addition of 1 mM GTP at 37°C. The fluorescence was read for 2,000 s using PerkinElmer Enspire® plate reader.
FIGURE 7 The effect of the LXC compounds on the polymerization of mammalian tubulin. (A–F) The polymerizing activity of the LXC compounds on porcine tubulin was assessed using a commercial Tubulin Polymerization Assay Kit. The LXC compounds at 1 × MIC were pre-incubated with tubulin on ice before the reaction was initiated by the addition of 1 mM GTP. The fluorescence was measured as a function of time at A360 and A420 nm excitation and emission wavelengths, respectively, at the constant temperature of 37°C. DMSO 2.5% (v/v) (brown curves) was used as vehicle control while paclitaxel (polymerization stabilizer; blue curves) and vinblastine (polymerization inhibitor; green curves) at 20 μM each were also included as controls.

[2] = tested on: A. baumannii XDR UW 5075; test: Checkerboard titration MIC with efflux pump inhibitor PAβN; assay type: cell-based, Acinetobacter baumannii; settings: for MIC in combination with PAβN: PAβN concentration not given in the sentence
Protocol: To determine if expression of efflux pumps would play a role in the efflux of the cinnamaldehyde derivatives leading to poor antimicrobial activity, interactions between PAβN and the LXC compounds were assessed by checkerboard titration assay. The checkerboard titration assay was performed as previously described ([Chai et al., 2020]). Briefly, PAβN was added in the first row and serially diluted in CaMH broth along the ordinate of the microwell plate while the LXC compounds were serially diluted along the abscissa. Bacterial suspension for A. baumannii ATCC 19606 or AB UW 5075 100 μL/well were added as described for the MIC assay. Bacterial growth was assessed at A600 nm between time 0 and 18 h (Cytation5® Cell Imaging Multi-Mode Reader, Bio-Tek®).

[3] = tested on: A. baumannii ATCC 19606; test: MIC, microbroth dilution (EUCAST); assay type: cell-based, Acinetobacter baumannii; settings: Acinetobacter baumannii, ATCC19606, 18 h
Protocol: (§1) Reference bacterial strains were obtained from the American Type Culture Collection (ATCC). Vancomycin resistant Enterococcus faecium (VRE 734, wastewater isolate from the Venter Laboratory Collection) was isolated on Bile Esculin agar (Oxoid, Australia) containing 6 μg/mL vancomycin and identified using MALDI-TOF mass spectrometry (Bruker, Preston, Victoria, Australia, Australian Center for Antimicrobial Resistance Ecology). The Pseudomonas aeruginosa WT PAO1 and Escherichia coli with deletions of both acrA and acrB genes encoding drug efflux pumps were obtained from the Venter laboratory stock ([Welch et al., 2010]). The protocol for microbial growth was adopted from the European Committee on Antimicrobial Susceptibility Testing (EUCAST) ([European Committee for Antimicrobial Susceptibility Testing, 2016]).
(§2) Non-fastidious bacteria and clinical isolates were maintained in Mueller Hinton (MH) broth (Acumedia, United Kingdom) supplemented with 15% (v/v) glycerol (Chem-Supply, Australia), cultured on Mueller Hinton (MH) agar (Acumedia, United Kingdom) plated and incubated at 37°C. Fastidious bacteria were maintained in Brain Heart Infusion (BHI) broth (Acumedia, United Kingdom) supplemented with 15% (v/v) glycerol at −80°C. The fastidious bacteria were cultured on MH agar plates supplemented with 5% (v/v) lysed horse blood and 3% (v/v) fetal bovine serum and incubated at 30°C in the presence of 5% CO2. Drug susceptibility assays were carried out with the non-fastidious cultures grown in cation-adjusted Mueller Hinton (CaMH) broth (Becton Dickinson, France). Streptococcus pyogenes was grown in CaMH broth supplemented with 5% (v/v) lysed horse blood and 3% (v/v) fetal bovine serum whereas Enterococcus faecium was grown in BHI broth.
(§3) The minimum inhibitory concentrations (MICs) for all six compounds were determined using the microbroth dilution protocol as per EUCAST with an inoculum of approximately […] in an exponential growth phase ([European Committee for Antimicrobial Susceptibility Testing, 2016]). Bacterial suspension, 100 μL/well, was added to 100 μL/well of drug dilutions, then incubated for 18 h at 37°C. Fastidious bacterial suspensions were instead incubated at 30°C in the presence of 5% CO2. Bacterial growth was assessed by measuring the change in A600 nm between time 0 and 18 h (Cytation5® Cell Imaging Multi-Mode Reader, Bio-Tek®). Levofloxacin was used as the positive control. Assays were completed in duplicate in at least three independent experiments.

[4] = tested on: A. baumannii XDR UW 5075; test: MIC, microbroth dilution (EUCAST); assay type: cell-based, Acinetobacter baumannii; settings: Acinetobacter baumannii, XDRUW5075, 18 h
Protocol: as §1, §2, §3

[5] = tested on: Klebsiella pneumoniae ATCC 33495; test: Antibacterial activity (MIC), microbroth dilution; assay type: cell-based; settings: Klebsiella pneumoniae, ATCC33495, read-out: Antibacterial activity (MIC)
Protocol: as §1, §2, §3

[6] = tested on: Klebsiella pneumoniae ATCC 4352; test: Antibacterial activity (MIC), microbroth dilution; assay type: cell-based; settings: Klebsiella pneumoniae, ATCC4352, read-out: Antibacterial activity (MIC)
Protocol: as §1, §2, §3

[7] = tested on: Methicillin resistant Staphylococcus aureus; test: Antibacterial activity (MIC), microbroth dilution; assay type: cell-based; settings: Staphylococcus aureus, ATCC 43300 / MRSA, read-out: Antibacterial activity (MIC)
Protocol: as §1, §2, §3

[8] = tested on: HepG2 (ATCC HB-8065) cells; test: RealTime-Glo MT cell viability assay; assay type: cell-based; settings: 24 h
Protocol: The effects of the cinnamaldehyde analogs were analyzed for off-target effects on mammalian cells using the protocol as previously described ([Chai et al., 2020]) with the following modifications. In vitro cytotoxicity was assessed in HepG2 (ATCC HB-8065) cells using the RealTime-Glo™ MT Cell Viability Assay Kit (Promega) as described previously ([Wang et al., 2017]). The LXC compounds were tested at 1 × and 2 × MIC using a final DMSO concentration of 2% (v/v) in the assay. […] The luminescence signal was read at 5-min intervals over 24 h in a Cytation5® Cell Imaging Multi-Mode Reader (Bio-Tek®), at 37°C in the presence of 5% CO2.
FIGURE 8 The LXC compounds are generally non-toxic at a concentration of 1 × MIC. (A–F) Real-time liver cell viability measurements for HepG2 after treatment with 1 × (pink line) and 2 × (brown line) MIC values. […] Cell viability was measured every 5 min for 24 h at 37°C and 5% CO2 on a Cytation5® Cell Imaging Multi-Mode Reader using the RealTime-Glo™ MT Cell Viability Assay reagent. The results are presented in mean ± SEM (hourly SEM data was presented).

[9] = A. baumannii XDR UW 5075, +PAβN 50 μg/mL
[10] = Acinetobacter baumannii, XDRUW5075
[11] = Acinetobacter baumannii, XDRUW5075, A. baumannii XDR UW 5075, +PAβN 100 μg/mL, read-out: MIC
[12] = Acinetobacter baumannii, XDRUW5075, A. baumannii XDR UW 5075, +PAβN 200 μg/mL, read-out: MIC

T1 sequence (P02550 whole entry): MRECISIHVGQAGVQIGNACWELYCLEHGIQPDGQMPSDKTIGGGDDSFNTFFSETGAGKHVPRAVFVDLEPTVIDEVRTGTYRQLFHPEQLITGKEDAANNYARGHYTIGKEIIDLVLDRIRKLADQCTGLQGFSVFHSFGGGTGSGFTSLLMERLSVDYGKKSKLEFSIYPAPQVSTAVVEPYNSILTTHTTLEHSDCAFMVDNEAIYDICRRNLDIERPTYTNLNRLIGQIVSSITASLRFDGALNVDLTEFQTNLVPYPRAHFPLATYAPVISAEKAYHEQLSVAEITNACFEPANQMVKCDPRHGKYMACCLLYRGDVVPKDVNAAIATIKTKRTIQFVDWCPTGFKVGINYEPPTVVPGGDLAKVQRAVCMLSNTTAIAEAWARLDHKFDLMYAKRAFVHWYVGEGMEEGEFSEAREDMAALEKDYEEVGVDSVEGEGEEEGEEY
T1 sequence (P02554 whole entry): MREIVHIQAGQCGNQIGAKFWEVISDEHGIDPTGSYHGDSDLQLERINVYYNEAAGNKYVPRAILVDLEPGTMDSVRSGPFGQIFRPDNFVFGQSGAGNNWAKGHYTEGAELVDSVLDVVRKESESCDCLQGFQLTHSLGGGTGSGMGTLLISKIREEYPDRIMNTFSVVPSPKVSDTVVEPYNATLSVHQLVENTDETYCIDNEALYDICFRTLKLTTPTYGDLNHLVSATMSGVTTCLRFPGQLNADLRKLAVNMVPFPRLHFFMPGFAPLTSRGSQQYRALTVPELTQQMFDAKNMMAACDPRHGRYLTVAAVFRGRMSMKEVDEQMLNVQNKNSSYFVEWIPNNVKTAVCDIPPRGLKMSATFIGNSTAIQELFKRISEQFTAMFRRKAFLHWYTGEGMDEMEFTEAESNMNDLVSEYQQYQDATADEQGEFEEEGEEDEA

| SMILES | Effect on tubulin polymerization [1] | MIC [2, 9] | MIC [2, 10] | MIC [2, 11] | MIC [2, 12] | MIC [3] | MIC [4] | MIC [5] | MIC [6] | MIC [7] | Cytotoxicity, HepG2 cell viability ([8]; 2 × MIC) | MIC in combination with PAβN ([2]; A. baumannii XDR UW 5075) | Cytotoxicity, HepG2 cell viability ([8]; 1 × MIC) |
| --- | --- | --- | --- | --- | --- | --- | --- | --- | --- | --- | --- | --- | --- |
| Cc1nc2ccccc2n1C(=O)/C=C/c1ccc(F)cc1 [Compound 2] | devoid of tubulin polymerization activity | >128 µg/mL | > 128 µg/mL | 64 µg/mL | 64 µg/mL | 128 µg/mL (≈ 457 µM) | > 128 µg/mL | > 256 µg/mL | > 256 µg/mL | > 256 µg/mL | cytotoxicity was also observed |  |  |
| Cc1nc2ccccc2n1C(=O)/C=C/c1ccc(Cl)cc1Cl [Compound 6] | devoid of tubulin polymerization activity; also recorded: lack of activity against the tubulin counter-target | >128 µg/mL | > 128 µg/mL | 32 µg/mL | 32 µg/mL | 64 µg/mL (≈ 193 µM) | > 128 µg/mL | > 256 µg/mL | > 256 µg/mL | 64 µg/mL (≈ 193 µM) | devoid of hemolytic activity and cytotoxicity against mammalian cells in vitro; also recorded: devoid of undesirable toxicity | 32 µg/mL |  |
| Cc1nc2ccccc2n1C(=O)/C=C/c1ccccc1 [Compound 1] | undesirable inhibitory activity | >128 µg/mL | > 128 µg/mL | 128 µg/mL | 64 µg/mL | 128 µg/mL (≈ 488 µM) | > 128 µg/mL | > 256 µg/mL | > 256 µg/mL | 256 µg/mL (≈ 976 µM) | cytotoxicity was also observed |  |  |
| Cc1nc2ccccc2n1C(=O)/C=C/c1ccc(Br)cc1 [Compound 4] | undesirable inhibitory activity against tubulin | >128 µg/mL | > 128 µg/mL | 128 µg/mL | 64 µg/mL | 32 µg/mL (≈ 93.8 µM) | > 128 µg/mL | > 256 µg/mL | > 256 µg/mL | > 256 µg/mL | devoid of undesirable toxicity |  |  |
| COc1ccc(/C=C/C(=O)n2c(C)nc3ccccc32)cc1OC [Compound 5] | devoid of tubulin polymerization activity | >128 µg/mL | > 128 µg/mL | 64 µg/mL | 32 µg/mL | 256 µg/mL (≈ 794 µM) | > 128 µg/mL | > 256 µg/mL | > 256 µg/mL | > 256 µg/mL |  | 32 µg/mL | displayed cytotoxicity |
| Cc1nc2ccccc2n1C(=O)/C=C/c1ccc(Cl)cc1 [Compound 3] | undesirable inhibitory activity | >128 µg/mL | > 128 µg/mL | 128 µg/mL | 64 µg/mL | 128 µg/mL (≈ 431 µM) | > 128 µg/mL | > 256 µg/mL | > 256 µg/mL | > 256 µg/mL | cytotoxicity was also observed |  |  |

Reference: article PMC9465178, “Cinnamaldehyde derivatives act as antimicrobial agents against Acinetobacter baumannii through the inhibition of cell division” (Frontiers in Microbiology, 2022)
